The first assay has as its target T1, c-Myc-Max heterodimers (Homo sapiens, UniProt P01106).
T1 construct: c-Myc bHLH-ZIP domain (residues 353-437); His6-TEV protease substrate tag; made in house; host or cells: bacteria (pET151 vector for Myc)
The assay can be described thus: Electrophoretic mobility shift assay (EMSA) of c-Myc-Max dimerization and DNA binding. As to conditions: Table 1; 100 μM compound; Myc-Max/DNA band intensity relative to control; read-out: Inhibition at 100 μM (%). The protocol:
The ability of a small-molecule to interfere with c-Myc-Max dimerization is conveniently assessed through the disruption of the c-Myc-Max/DNA ternary complex by an electrophoretic mobility shift assay (EMSA) using fluorescently-labelled DNA, and subsequently quantified by densitometry.(23) Accordingly, a 100-member library was screened for the ability to disrupt the c-Myc-Max dimer.
These were performed essentially as described previously (23). Briefly, Ni^+-agarose-purified His6-tagged c-Myc bHLH-ZIP domain (residues 353-437) was used for all binding assays as was the His6-tagged 151 residue isoform of Max, otherwise referred to as Max(S) (residues 2-151) (21). For each binding reaction, the proteins were allowed to heterodimerize at a concentration of 30 nM each in the presence of 20 nM of a 5′-HEX-tagged double-stranded 22-base pair oligonucleotide 5′-hexachlorofluoresceine-[…]-3′ (SEQ ID NO: 1) containing a consensus c-Myc binding site (CACGTG) and the indicated concentration of small molecule inhibitor. Control reactions contained the same oligonucleotide in the presence of 60 nM of the 160 residue isoform of Max referred to as Max(L) (21). All binding reactions were prepared in a buffer consisting of PBS (pH 7.3), 1 mmol/L EDTA, 0.1% NP40, 5% glycerol, 1 mmol/L DTT, and 0.4 mg/mL bovine serum albumin. Electrophoresis was performed on 8% polyacrylamide/bisacrylamide (80:1) gels in […] (23). Each reaction was run on at least three separate occasions.
EMSAs were performed essentially as described utilizing bacterially-expressed recombinant proteins purified nearly to homogeneity.(23) Experiments with Max homodimers used the His6-tagged 160 amino acid isoform of the protein, termed Max(L), which homodimerizes and binds DNA well. For studies with Myc-Max heterodimers, the His6-tagged 151 residue isoform of Max [Max(S)] was used, which binds DNA well as a heterodimer with Myc but poorly as a homodimer.(23) Recombinant Myc protein, expressed in the pET151 vector, consisted of the His6-TEV protease substrate-tagged 85 amino acid bHLH-ZIP domain. (23) Each protein was purified by Ni-agarose affinity chromatography as previously described. (23) The His6-TEV tag was removed from the Myc protein by TEV protease cleavage followed by re-purification using Ni-agarose affinity chromatography to remove the His6-TEV protease and the cleaved His6-TEV tag as previously described. Binding assays were performed with 30 nM of each protein and 30 nM of a 6-carboxy-2′,4,4′,5′,7,7′-hexachlorofluorescein (HEX)-tagged double-stranded oligonucleotide containing a consensus Myc binding site (IDT, Coralville, Iowa).(23)
T1 sequence (P01106 368-452, one chain of several): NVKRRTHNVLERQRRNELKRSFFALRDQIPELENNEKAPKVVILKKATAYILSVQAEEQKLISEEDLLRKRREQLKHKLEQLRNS
Regarding `O=[N+]([O-])c1ccc(NC2CCCCC2)c2nonc12` [Compound 3b, N-Cyclohexyl-7-nitrobenzo[c][1,2,5]oxadiazol-4-amine], the inhibition at 100 µM turned out to be 11%.
For `O=[N+]([O-])c1ccc(NCc2ccccc2)c2nonc12` [Compound 3c, N-Benzyl-7-nitrobenzo[c][1,2,5]oxadiazol-4-amine], the inhibition at 100 µM was 0%.
Same read-out and setting: under `O=[N+]([O-])c1ccc(N2CCCCC2)c2nonc12` [Compound 3d, 4-Nitro-7-(piperidin-1-yl)benzo[c][1,2,5]oxadiazole] stands 10%; under `Cc1ccccc1Nc1ccc([N+](=O)[O-])c2nonc12` [Compound 3e, 7-Nitro-N-(o-tolyl)benzo[c][1,2,5]oxadiazol-4-amine], 11%.
The same measure, in the same setting: then `O=[N+]([O-])c1ccc(Nc2ccccc2Br)c2nonc12` [Compound 3f, N-(2-Bromophenyl)-7-nitrobenzo[c][1,2,5]oxadiazol-4-amine], with roughly 40%; and `O=[N+]([O-])c1ccc(Nc2ccccc2O)c2nonc12` [Compound 3g, 2-((7-Nitrobenzo[c][1,2,5]oxadiazol-4-yl)amino)phenol], with 13%; and `COc1ccccc1Nc1ccc([N+](=O)[O-])c2nonc12` [Compound 3h, N-(2-Methoxyphenyl)-7-nitrobenzo[c][1,2,5]oxadiazol-4-amine], with 0%.
The same measure, in the same setting: under `O=C(O)c1ccccc1Nc1ccc([N+](=O)[O-])c2nonc12` [Compound 3i, 2-((7-Nitrobenzo[c][1,2,5]oxadiazol-4-yl)amino)benzoic acid] stands 8%.
As for `O=[N+]([O-])c1ccc(Oc2ccccc2-c2ccccc2)c2nonc12` [Compound 3j, 4-([1,1′-Biphenyl]-2-yloxy)-7-nitrobenzo[c][1,2,5]oxadiazole], the inhibition at 100 µM was found to be 36%.
Turning to `O=C(O)c1cccc(Nc2ccc([N+](=O)[O-])c3nonc23)c1` [Compound 3m, 3-((7-Nitrobenzo[c][1,2,5]oxadiazol-4-yl)amino)benzoic acid], the inhibition at 100 µM is 0%.

The same assay, now with this note: Table 2; 100 μM compound; Myc-Max/DNA band intensity relative to control; read-out: Inhibition at 100 μM (%).
On to `CC(=O)Nc1ccc(Nc2ccccc2-c2ccccc2)c2nonc12` [Compound 5a, N-(7-([1,1′-Biphenyl]-2-ylamino)benzo[c][1,2,5]oxadiazol-4-yl)acetamide], for which the inhibition at 100 µM was found to be 2%.
The same measure, in the same setting: then `O=C(Nc1ccc(Nc2ccccc2-c2ccccc2)c2nonc12)C(F)(F)F` [Compound 5b, N-(7-([1,1′-Biphenyl]-2-ylamino)benzo[c][1,2,5]oxadiazol-4-yl)-2,2,2-trifluoroacetamide], with 25%.
On the same count and under the same terms, under `COC(=O)Nc1ccc(Nc2ccccc2-c2ccccc2)c2nonc12` [Compound 5c, Methyl (7-([1,1′-biphenyl]-2-ylamino)benzo[c][1,2,5]oxadiazol-4-yl)carbamate] stands 0%.
Same read-out and setting: then `O=C(O)CCC(=O)Nc1ccc(Nc2ccccc2-c2ccccc2)c2nonc12` [Compound 5d, 4-((7-([1,1′-Biphenyl]-2-ylamino)benzo[c][1,2,5]oxadiazol-4-yl)amino)-4-oxobutanoic acid], with 17%.
As to `O=C(O)COCC(=O)Nc1ccc(Nc2ccccc2-c2ccccc2)c2nonc12` [Compound 5e, 2-(2-((7-([1,1′-Biphenyl]-2-ylamino)benzo[c][1,2,5]oxadiazol-4-yl)amino)-2-oxoethoxy)acetic acid], the inhibition at 100 µM was 33%.
On the same count and under the same terms, under `O=[N+]([O-])c1ccc(Nc2ccccc2-c2ccccc2)cc1` [Compound 7, N-(4-Nitrophenyl)-[1,1′-biphenyl]-2-amine] stands 0%.

The same assay, now with this note: Table 10; 100 μM small-molecule, EMSA; read-out: % Inhibition of c-Myc-Max Dimerization.
In the case of `Cc1cccc(-c2cc(C(=O)O)ccc2Nc2ccc([N+](=O)[O-])c3nonc23)c1` [Compound 3j53-5], the inhibition at 100 µM worked out at 16%.
On the same count and under the same terms, under `O=C(O)c1ccc(Nc2ccc([N+](=O)[O-])c3nonc23)c(-c2ccccc2)c1` [Compound 3jc42] stands 10%.
On the same count and under the same terms, under `O=C(O)c1ccc(Nc2ccc([N+](=O)[O-])c3nonc23)c(-c2ccccc2-c2ccccc2)c1` [Compound 3jc53-1] stands 18%; under `O=C(O)c1ccc(Nc2ccc([N+](=O)[O-])c3nonc23)c(-c2cccc(-c3ccccc3)c2)c1` [Compound 3jc53-2], 0%.
The same measure, in the same setting: under `O=C(O)c1ccc(Nc2ccc([N+](=O)[O-])c3nonc23)c(-c2ccc(-c3ccccc3)cc2)c1` [Compound 3jc53-3] stands 41%; under `Cc1ccccc1-c1cc(C(=O)O)ccc1Nc1ccc([N+](=O)[O-])c2nonc12` [Compound 3jc53-4], 7%; under `N#Cc1ccccc1-c1cc(C(=O)O)ccc1Nc1ccc([N+](=O)[O-])c2nonc12` [Compound 3jc53-7], 44%.
As for `N#Cc1cccc(-c2cc(C(=O)O)ccc2Nc2ccc([N+](=O)[O-])c3nonc23)c1` [Compound 3jc53-8], the inhibition at 100 µM turned out to be 23%.
For the compound `N#Cc1ccc(-c2cc(C(=O)O)ccc2Nc2ccc([N+](=O)[O-])c3nonc23)cc1` [Compound 3jc53-9], the inhibition at 100 µM was found to be 13%.
The same measure, in the same setting: under `CCc1ccc(-c2cc(C(=O)O)ccc2Nc2ccc([N+](=O)[O-])c3nonc23)cc1` [Compound 3jc53-10] stands 34%; under `CC(C)c1ccc(-c2cc(C(=O)O)ccc2Nc2ccc([N+](=O)[O-])c3nonc23)cc1` [Compound 3jc53-11], 0%.
Same read-out and setting: then `CC(C)(C)c1ccc(-c2cc(C(=O)O)ccc2Nc2ccc([N+](=O)[O-])c3nonc23)cc1` [Compound 3jc53-12], with 2%; and `O=C(O)c1ccc(Nc2ccc([N+](=O)[O-])c3nonc23)c(-c2ccccc2O)c1` [Compound 3jc53-13], with 0%.
The same measure, in the same setting: then `COc1ccc(-c2cc(C(=O)O)ccc2Nc2ccc([N+](=O)[O-])c3nonc23)cc1` [Compound 3jc53-14], with 4%.
With `O=C(O)c1ccc(-c2cc(C(=O)O)ccc2Nc2ccc([N+](=O)[O-])c3nonc23)cc1` [Compound 3jc53-15], the inhibition at 100 µM came to 6%.
On the same count and under the same terms, then `Cc1ccccc1-c1cc(Nc2ccc([N+](=O)[O-])c3nonc23)ccc1C(=O)O` [Compound 3jc62-1], with 0%; and `Cc1cccc(-c2cc(Nc3ccc([N+](=O)[O-])c4nonc34)ccc2C(=O)O)c1` [Compound 3jc62-2], with 0%; and `Cc1ccc(-c2cc(Nc3ccc([N+](=O)[O-])c4nonc34)ccc2C(=O)O)cc1` [Compound 3jc62-3], with 0%.
Same read-out and setting: under `N#Cc1ccccc1-c1cc(Nc2ccc([N+](=O)[O-])c3nonc23)ccc1C(=O)O` [Compound 3jc62-4] stands 0%; under `N#Cc1cccc(-c2cc(Nc3ccc([N+](=O)[O-])c4nonc34)ccc2C(=O)O)c1` [Compound 3jc62-5], 8%; under `N#Cc1ccc(-c2cc(Nc3ccc([N+](=O)[O-])c4nonc34)ccc2C(=O)O)cc1` [Compound 3jc62-6], 25%.
Still for that read-out and setting: then `O=C(O)c1ccc(Nc2ccc([N+](=O)[O-])c3nonc23)cc1-c1ccccc1` [Compound 3jc62-7], with 0%; and `O=C(O)c1ccc(Nc2ccc([N+](=O)[O-])c3nonc23)c(-c2ccc(C(F)(F)F)cc2)c1` [Compound 4jc23-6], with 0%.

Still in this assay, the particulars now being: read-out: Inhibition at 100 μM (%), Table 1; 100 μM compound; Myc-Max/DNA band intensity relative to control.
On to `O=[N+]([O-])c1ccc(Nc2ccccc2)c2nonc12` [Compound 3a, 7-Nitro-N-phenylbenzo[c][1,2,5]oxadiazol-4-amine], for which the inhibition at 100 µM was 2%.
The same measure, in the same setting: under `O=[N+]([O-])c1ccc(Nc2ccc(-c3ccccc3)cc2)c2nonc12` [Compound 3n] stands 28%.
On the same count and under the same terms, then `Cc1ccc(Nc2ccc([N+](=O)[O-])c3nonc23)cc1` [Compound 3o, 7-Nitro-N-(p-tolyl)benzo[c][1,2,5]oxadiazol-4-amine], with 0%.
